Data taken from US20060074073A1, “Therapeutic combinations comprising poly (ADP-ribose) polymerases inhibitor” (AGOURON PHARMACEUTICALS, INC., priority 2004, published 2006).
Read-outs that look alike come from different tables or passages of the source. Marks after values point to notes of the source that are not given here.

Experiments:
[1] = Plasma and tumor levels by HPLC/MS in mice bearing SW620 xenograft; assay type: in vivo; details: for concentration at 0.5 h / concentration at 6 h / concentration at 24 h: mouse, intraperitoneal
Description: In a parallel study plasma and tumor levels of the compound of formula 1 were measured by an HPLC/MS assay. In addition the degree of inhibition of tumor PARP catalytic activity was assessed using P^32-NAD incorporation into poly-ADP-ribose polymer in homogenates from SW620 tumors of treated animals. […] PARP catalytic activity was inhibited by 50% at 6 h and by 25% at 24 h.

LoVo xenografts = assay: In vivo antitumor efficacy with irinotecan, LoVo xenograft; parameters: species or system mice; details: irinotecan 25 mg/kg i.p. + 0.5 mg/kg i.p. (glucuronate salt), once weekly × 3
Source text: In no combination study was antagonism observed.

[2] = IV pharmacokinetics, summary over all species; parameters: species or system CD-1 mice, Wistar rats, Beagle dogs, and cynomolgus monkeys; details: CD-1 (mouse), Wistar (rat), Beagle (dog), cynomolgus monkey, in vivo, IV dosing
Source text: Each of the dose treatment groups was split into 2 cohort groups of 4 mice. The reason for cohort blood sampling is due to the blood volume limitations of the mouse species. Blood was drawn from each cohort every other pharmacokinetic sampling time. […] Three mice per dose group were euthanized at each of the collection time points. […] Blood from each rat was collected for each time point.

[3] = system: SW620 human colon carcinoma xenograft; assay: In vivo antitumor efficacy with temozolomide, SW620 xenograft; details: SW620
PARP = assay: Tumor PARP catalytic activity, 32P-NAD incorporation in SW620 tumor homogenates of treated animals; assay type: in vivo, mice
Description: Tumours were excised and were snap frozen in liquid nitrogen and stored at −80° C. until homogenised for analysis. The specimen was defrosted on ice and the wet weight documented. The tissue was homogenised using a Pro 2000 instrument (Pro Scientific Inc, Monroe, Conn., USA) in 3 volumes (i.e. 1 mg plus 3 μl isotonic buffer −7 mM Hepes, 26 mM KCl, 0.1 mM dextran, 0.4 mM EGTA, 0.5 mM MgCl2, 45 mM sucrose, pH 7.8), giving a homogenate with an overall dilution of 1 in 4. The homogenate was kept on ice throughout the process, and homogenisation was performed in 10 second bursts to prevent undue warming of the sample. Prior to assay the samples were further diluted with isotonic buffer where necessary to give a final dilution of 1 in 40 for [^32P]NAD incorporation assay or 1 in 1000 for immunoblot aaasy.
Briefly, cells were suspended in hypotonic buffer (9 mM HEPES pH 7.8, 4.5% (v/v) dextran, 4.5 mM MgCl2 and 5 mM DTT) at 1.5×10^7/ml on ice for 30 minutes then 9 vol of isotonic buffer (40 mM HEPES pH 7.8, 130 mM KCl, 4% (v/v) dextran, 2 mM EGTA, 2.3 mM MgCl2, 225 mM sucrose and 2.5 mM DTT) was added. The reaction was started by adding 300 μl cells to 100 μl 300 μM NAD^+ containing [^32P]-NAD^+ (Amersham, UK), and terminated by the addition of 2 ml ice cold 10% (w/v) TCA+10% (w/v) sodium pyrophosphate. After 30 min on ice the precipitated ^32P—labelled ADP-ribose polymers were filtered on Whatman GC/C filters (Whatman Intemational Ltd, Kent, UK), washed 5 times with 1% (v/v) TCA/1% (v/v) sodium pyrophosphate, dried and counted. PARP inhibitory IC50 values were calculated from computer-fitted curves (GraphPad Software, Inc., San Diego, Calif.).
Tumour homogenates were assayed in a similar manner; however, the homogenisation process introduces sufficient DNA damage to maximally stimulate PARP activity and oligonucleotide was not therefore required. Results were expressed in terms of pmol PAR former per mg tumour.
Preparation of Tumour/Tissue Samples • 1. The frozen tumour samples are weighed. • 2. 3 volumes (i.e. 3 μl solution added for each 1 mg tissue) of isotonic buffer plus DTT is added to the tumour sample. This is stored on ice until and during homogenisation. • 3. The sample is homogenised on ice within a Class II cabinet for 10-second bursts until no detectable macroscopic pieces of tissue are visible. • 4. Sufficient volume of the homogenate is diluted 1 in 10 with isotonic buffer plus DTT to provide an overall dilution of 1 in 40 from the original sample. A final volume of 3 ml is sufficient for triplicate sampling and a subsequent protein assay. • 5. The diluted homogenate is stored on ice and assayed within one hour as below.
PARP Assay of Tumour/Tissue Samples • 1. ^32P 600 μM NAD solution is prepared fresh on the day of experiment as detailed above. Oligonucleotide stock is removed from storage and defrosted. • 2. Water bath is warmed to 26° C. and set to agitate at 70 oscillations per minute.
3. Reaction test tubes are set up as per table A for the QC samples and as per table B for the homogenate.
• 4. Each QC sample is assayed in triplicate, with T0, +oligo and −oligo samples ×3. (Total of 9 tubes per sample, if low cell counts −oligo samples are omitted.) Homogenates are also assayed in triplicate, with T0 and reaction samples ×3. (Total 6 tubes per sample). • 5. 2 ml ice cold 10% TCA+10% NaPPi is added to the T0 tubes prior to addition of homogenate or cells, to correct for non-specific binding of radio-label to the filter. • 6. Reaction test tubes homogenates and QC cells are warmed in the water bath to 26° C. for 7 minutes. • 7. Each preparation is vortexed briefly and the reaction is started by adding 300 μl of this to each reaction tube. • 8. The reaction is stopped exactly 6 minutes after addition of homogenate by adding 2 ml of ice cold 10% TCA+10% NaPPi and vortexing. • 9. The tube is then incubated on ice for at least one hour prior to filtration. • 10. […]

In the case of `CNCc1ccc(-c2[nH]c3cc(F)cc4c3c2CCNC4=O)cc1` [compound of formula 1, 8-fluoro-2-{4-[(methylamino)methyl]phenyl}-1,3,4,5-tetrahydro-6H-azepino[5,4,3-cd]indol-6-one], the “Tumor compound of formula 1” value ([1]; 1.0 mg/kg i.p. as phosphate salt, 24 h) is reported as “BLQ^c”, the plasma concentrations ([1]; 1.0 mg/kg, 6 hours) is reported as “barely detectable” and the “Plasma compound of formula 1” value ([1]; 10 mg/kg i.p. as phosphate salt, 0.5 h) is reported as 1867 + 102 ng/mL. The plasma concentrations ([1]; 10 mg/kg, 24 h) was “barely detectable”, the tumor levels ([1]; 10 mg/kg, all times up to 24 h) was greater than 200 ng/mL and the concentration at 0.5 h ([1]; plasma, 1 mg/kg, Plasma compound of formula 1, 1.0 mg/kg i.p. as phosphate salt, 0.5 h) was 107 ± 32.3 ng/mL. It also gave a concentration at 6 h ([1]; plasma, 1 mg/kg, Plasma compound of formula 1, 1.0 mg/kg i.p. as phosphate salt) of 6.64 ± 1.55 ng/mL, a concentration at 24 h ([1]; plasma, 1 mg/kg, Plasma compound of formula 1, 1.0 mg/kg i.p. as phosphate salt, 24 h) of 1.85 ± 0.14 ng/mL and a concentration at 6 h ([1]; plasma, 10 mg/kg, Plasma compound of formula 1, 10 mg/kg i.p. as phosphate salt) of 64.4 ± 11 ng/mL. It also gave a concentration at 24 h ([1]; plasma, 10 mg/kg, Plasma compound of formula 1, 10 mg/kg i.p. as phosphate salt, 24 h) of 2.34 ± 0.33 ng/mL, a concentration at 6 h ([1]; plasma, 10 mg/kg, read-out: plasma concentrations) of 30 ng/mL and a concentration at 0.5 h ([1]; tumor, 1 mg/kg, Tumor compound of formula 1, 1.0 mg/kg i.p. as phosphate salt, 0.5 h) of 98.3 ± 25.2 ng/g. The concentration at 6 h ([1]; tumor, 1 mg/kg, Tumor compound of formula 1, 1.0 mg/kg i.p. as phosphate salt) was 49.5 ± 2.12 ng/g, the concentration at 0.5 h ([1]; tumor, 10 mg/kg, Tumor compound of formula 1, 10 mg/kg i.p. as phosphate salt, 0.5 h) was 767 ± 55.6 ng/g and the concentration at 6 h ([1]; tumor, 10 mg/kg, Tumor compound of formula 1, 10 mg/kg i.p. as phosphate salt) was 523 ± 37.3 ng/g. The concentration at 24 h ([1]; tumor, 10 mg/kg, Tumor compound of formula 1, 10 mg/kg i.p. as phosphate salt, 24 h) was 167 ± 54.2 ng/g, the “Enhancement (%)” value (LoVo xenografts) was 86% and the clearance [2] was 34 to 136 mL/min/kg. The half-life ([2]; read-out: terminal half-life) was 2 to 5 h, the Vd ([2]; read-out: volume of distribution) was 7 to 15 L/kg and the “Enhancement (%)” value ([3]; 0.1 mg/kg i.p. glucuronate salt + temozolomide 68 mg/kg p.o., QD×5) was 28%. The “Enhancement (%)” value ([3]; 1.0 mg/kg i.p. glucuronate salt + temozolomide 68 mg/kg p.o., QD×5) was 100%, the “Enhancement (%)” value ([3]; temozolomide 200 mg/kg oral + compound 0.1 mg/kg i.p., single dose) was 50^e % and the “Enhancement (%)” value ([3]; temozolomide 200 mg/kg oral + compound 0.3 mg/kg i.p., single dose) was 80^e %. For the same molecule, the “Enhancement (%)” value ([3]; temozolomide 200 mg/kg oral + compound 1 mg/kg i.p., single dose) was 107^e %, the “Enhancement (%)” value ([3]; temozolomide 200 mg/kg oral + compound 5 mg/kg i.p., single dose) was 111^e,f % and the “PARP catalytic activity inhibited” value (PARP; 1.0 mg/kg, 6 h) was 50%. For the same molecule, the “PARP catalytic activity inhibited” value (PARP; 1.0 mg/kg, 24 h) was 25%, the “PARP catalytic activity inhibited” value (PARP; 10 mg/kg, 6 h) was 90% and the “PARP catalytic activity inhibited” value (PARP; 10 mg/kg, 24 h) was 75%.
